According to US10144715B2, “Piperazine derivatives as liver X receptor modulators” (priority 2014, dated 2018):
Where two headings read alike, the source gives them in different places.

Tests used:
LXR β LBD protein [1] = target: T1, LXR β LBD protein (Homo sapiens (Human), UniProt P55055); experiment: biochemical; assay type: binding; conditions: read-out: LXRβ Binding Ki
Target sequence in this assay (P55055 222-460 limits assumed): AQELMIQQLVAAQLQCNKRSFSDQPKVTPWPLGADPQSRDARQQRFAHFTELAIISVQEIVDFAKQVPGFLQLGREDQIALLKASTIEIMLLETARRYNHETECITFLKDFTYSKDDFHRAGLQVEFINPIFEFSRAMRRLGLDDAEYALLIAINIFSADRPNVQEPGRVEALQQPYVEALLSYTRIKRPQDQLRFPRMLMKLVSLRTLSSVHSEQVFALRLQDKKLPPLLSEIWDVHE

[2] = target: Gal4 DNA binding domain fused to the LBD of LXRβ in HEK293 cells (Homo sapiens (Human), UniProt P55055); experiment: cell-based
Chain of Gal4 DNA binding domain fused to the LBD of LXRβ in HEK293 cells (P55055 222-460 limits assumed): as above

LXR β LBD protein [3] = target: T1, LXR β LBD protein; experiment: biochemical; assay type: biochemical; conditions: for EC50: read-out: FRET LXRβ EC50
Method: Two μL of the DMSO solutions were transferred to the plate and 38 μL of 10 nM LXRα-LBD or LXRβ-LBD (2×) were added immediately to the wells. The plate was shaken for 5 min at rt on an orbital micro shaker (DPC MicroMix® 5), after which 40 μL of 200 nM fluorescein-SRC2-3 peptide and 20 nM Terbium-anti-GST-antibody (Cat# PV3550, Life Technologies, Grand Island, N.Y.) solution (4×) were added to all. The plate was sealed and shaken for 2 min at rt, and incubated at rt for 2 h without agitation. […] The delay and window times were set at 100 and 200 microseconds, respectively. […] The percent control vs. compound concentration data were fit into a four-parameter model, and EC50 values were calculated from the fit as the concentrations corresponding to the inflection points on the concentration-response curves.
Target sequence in this assay (P55055 222-460): as the sequence (P55055 222-460 limits assumed) above

LXR α LBD protein [4] = target: T2, LXR α LBD protein (Homo sapiens (Human), UniProt Q13133); experiment: LXR α radioligand binding assay (SPA, competition with [3H]TO901317); conditions: read-out: LXRα Binding Ki
T2 sequence (Q13133 209-447): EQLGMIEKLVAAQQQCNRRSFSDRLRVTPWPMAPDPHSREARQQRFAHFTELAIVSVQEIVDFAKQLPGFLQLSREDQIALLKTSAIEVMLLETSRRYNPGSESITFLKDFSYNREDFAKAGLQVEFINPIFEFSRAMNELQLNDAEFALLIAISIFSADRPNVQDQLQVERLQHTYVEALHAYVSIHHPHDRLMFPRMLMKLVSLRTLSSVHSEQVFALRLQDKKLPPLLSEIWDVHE

[5] = target: Gal4 DNA binding domain fused to the LBD of LXRα in HEK293 cells (Homo sapiens (Human), UniProt Q13133); experiment: LXR luciferase transcriptional reporter gene assay, agonist mode, LXRα; assay type: cell-based
Chain of Gal4 DNA binding domain fused to the LBD of LXRα in HEK293 cells (Q13133 209-447): as above

LXR α LBD protein [6] = target: T2, LXR α LBD protein; experiment: Human LXRα coactivator recruitment FRET assay, agonist mode; assay type: biochemical
Procedure, shortened: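 LXRα- or LXRβ-LBD at 10 nM (2×) mixed with compound in DMSO, then fluorescein-SRC2-3 peptide 200 nM and Tb-anti-GST antibody 20 nM (4×) added; 2 h at rt. Time-resolved FRET read, 100 µs delay, 200 µs window; EC50 from four-parameter fit of percent control.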

[7] = agonist mode, read-out: Cell LXRβ EC50
[8] = agonist mode, read-out: Cell LXRα EC50
[9] = Biological Test Example 3, agonist mode

Row | Molecule | Ki (LXR β LBD protein [1]) [nM] | Cell LXRβ efficacy ([2]; agonist mode) | EC50 [2, 7] [nM] | FRET LXRβ efficacy (LXR β LBD protein [3]; agonist mode) | EC50 (LXR β LBD protein [3]; agonist mode) [nM] | Ki (LXR α LBD protein [4]) [nM] | Cell LXRα efficacy [5] | EC50 ([5]; read-out: Cell LXRα EC50) [nM] | EC50 (LXR α LBD protein [6]; agonist mode) [nM] | FRET LXRα efficacy (LXR α LBD protein [6]; agonist mode) [%] | EC50 [2] [nM] | FRET LXRβ efficacy (LXR β LBD protein [3]) | EC50 (LXR β LBD protein [3]) [nM] | further results
1 | CS(=O)(=O)c1cc(N2CCN(C[C@H]3CC[C@H](C(F)(F)F)CC3)[C@@H](c3ccccc3)C2)ccc1C(N)=O (single isomer, unassigned) [17-37] | 1010 | 24% | 3530 | 85% | 355 | 3210 | 16011 (50) % | 16000 | 605 | 53 | – | – | – | –
2 | CS(=O)(=O)c1cc(N2CCN(C[C@H]3CC[C@@H](C(F)(F)F)CC3)[C@H](c3ccccc3)C2)ccc1C(N)=O (single isomer, unassigned) [17-38] | 753 | 18% | 1790 | 71% | 561 | 3130 | 4828 (13) % | 4830 | 3370 | 34 | – | – | – | –
3 | CS(=O)(=O)c1cccc(N2CCN(Cc3ccc(C(F)(F)F)cc3)[C@@H](c3ccccc3)C2)c1 (single isomer, unassigned) [46-15] | 158 | – | – | – | – | – | 2993 (28) % | – | 1520 | 28 | 720 | 418 (45) % | 418 | Cell LXRβ efficacy [2]: 720 (26) %; EC50 [5, 8]: 2990 nM
4 | CS(=O)(=O)c1cccc(N2CCN(Cc3ccc(OC(F)(F)F)cc3)[C@@H](c3ccccc3)C2)c1 (single isomer, unassigned) [46-23] | 112 | – | – | – | – | 1040 | 4367 (45) % | 4370 | 7040 | 47 | 1430 | 710 (57) % | 710 | Cell LXRβ efficacy [2]: 1432 (29) %
5 | Cc1ccccc1[C@H]1CN(c2cccc(S(C)(=O)=O)c2)CCN1Cc1ccc(C(F)(F)F)nc1 (single isomer, unassigned) [46-46] | 1980 | 1989 (4) % | – | 1214 (51) % | – | > 3330 | – | – | 6690 | 30 | 1990 | – | 1210 | EC50 [5, 8]: > 20000 nM
6 | CS(=O)(=O)c1cccc(N2CCN(Cc3ccc(C(F)(F)F)nc3)[C@@H](c3ccccc3Cl)C2)c1 (single isomer, unassigned) [46-57] | 61 | – | – | – | – | 188 | 1244 (42) % | 1240 | 499 | 41 | 383 | 55 (56) % | 55 | Cell LXRβ efficacy [2]: 383 (38) %
7 | CS(=O)(=O)c1cccc(N2CCN(C[C@H]3CCN(CC(F)(F)F)C3)[C@@H](c3ccccc3)C2)c1 (single isomer, unassigned) [48-63] | – | – | – | – | – | > 3330 | – | – | – | – | > 20000 | – | 1550 | Ki (LXR β LBD protein [1]; Biological Test Example 1): > 2500 nM; FRET LXRβ efficacy (LXR β LBD protein [3]; [9]): 1553 (30) %; EC50 ([5]; Biological Test Example 2, agonist mode, read-out: Cell LXRα EC50): > 20000 nM; EC50 (LXR α LBD protein [6]; [9]): 11700 nM; FRET LXRα efficacy (LXR α LBD protein [6]; [9]): 14%
8 | CC(C)[C@@H]1CN(c2ccc(F)c(S(C)(=O)=O)c2)CCN1C(=O)OC(C)(C)C [2-1, tert-butyl (R)-4-(4-fluoro-3-(methylsulfonyl)phenyl)-2-isopropylpiperazine-1-carboxylate] | 209 | 684 (36) % | – | 74% | 56 | – | 5252 (61) % | 5250 | 901 | 48 | 684 | – | – | –
9 | CC(C)(O)c1ccc(CN2CCN(c3cccc(S(C)(=O)=O)c3)C[C@H]2c2ccccc2)cc1 [10-11, (R)-2-(4-((4-(3-(methylsulfonyl)phenyl)-2-phenylpiperazin-1-yl)methyl)phenyl)propan-2-ol] | – | – | – | – | – | – | – | > 20000 | > 50000 | – | > 20000 | – | > 50000 | –
10 | CS(=O)(=O)c1cccc(N2CCN(Cc3ccc(OC(F)F)cc3)[C@H](c3ccccc3)C2)c1 [46-10, (R)-1-(4-(difluoromethoxy)benzyl)-4-(3-(methylsulfonyl)phenyl)-2-phenylpiperazine] | – | – | – | – | – | – | – | – | 40700 | – | > 20000 | 24999 (94) % | 25000 | EC50 [5]: > 20000 nM; FRET LXRα efficacy (LXR α LBD protein [6]): 40680 (55) %
11 | C[C@@]1(c2ccccc2)CN(c2cccc(S(C)(=O)=O)c2)CCN1Cc1ccc(C(F)(F)F)cc1 [46-20, (R)-2-methyl-4-(3-(methylsulfonyl)phenyl)-2-phenyl-1-(4-(trifluoromethyl)benzyl)piperazine] | – | – | – | – | – | – | – | – | > 50000 | – | > 20000 | – | > 50000 | EC50 [5, 8]: > 20000 nM
12 | CS(=O)(=O)c1cccc(N2CCN(C[C@H]3CC[C@@H](C(F)(F)F)CC3)[C@@H](c3ccc(F)cc3)C2)c1 [Cpd No 48-43, (S)-2-(4-fluorophenyl)-4-(3-(methylsulfonyl)phenyl)-1-(((1s,4R)-4-(trifluoromethyl)cyclohexyl)methyl)piperazine] | 15 | – | – | – | – | – | 240 (54) % | – | 207 | 48 | 47 | 27 (43) % | 27 | Cell LXRβ efficacy [2]: 47 (32) %; EC50 [5, 8]: 240 nM
13 | benzyl 4-(3-(methylsulfonyl)phenyl)-2-phenylpiperazine-1-carboxylate [1-14] | – | – | > 20000 | 25% | – | – | – | > 20000 | 1540 | 27 | – | – | – | –
14 | tert-butyl 2-(2-bromophenyl)-4-(3-(methylsulfonyl)phenyl)piperazine-1-carboxylate [1-9] | – | – | > 20000 | 32% | 564 | – | – | > 20000 | > 50000 | – | – | – | – | –
15 | tert-butyl 2-cyclohexyl-4-(3-(methylsulfonyl)phenyl)piperazine-1-carboxylate [1-11] | – | 2% | 15700 | 25% | 340 | – | 16278 (16) % | 16300 | 19100 | 27 | – | – | – | –
16 | tert-butyl 2-methyl-4-(3-(methylsulfonyl)phenyl)-2-phenylpiperazine-1-carboxylate [1-10] | – | – | > 20000 | 31% | 500 | – | – | > 20000 | 3530 | 28 | – | – | – | –
